Laboratory results published in the NIST ThermoML archive (doi:10.1021/acs.jced.7b01021).
Numbers after ± are expanded uncertainties.

Details: Liquid, Ebulliometric method (Recirculating still)

CC(C)(C)O [2-methylpropan-2-ol]
vapor or sublimation pressure (355.59 K): 101.33 ± 0.71 kPa

Clc1ccccc1 [chlorobenzene]
vapor or sublimation pressure (404.8 K): 101.33 ± 0.71 kPa

CC(=O)OC(C)(C)C [1,1-dimethylethyl ethanoate]
vapor or sublimation pressure (371.05 K): 101.33 ± 0.71 kPa
